Patent publication US4605744A, “Imidazole derivatives” (Hoffmann-La Roche Inc., priority 1985, dated 1986)
Structures can show the parent of a compound that is named as a salt. Where two headings read alike, the source gives them in different places.

Columns and labels:
Format in all cases: cell-based
[1] = system: E. coli 257; test: In vitro antibacterial activity (MIC, Mueller-Hinton broth)
Summary of the method: (§1)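 Read-out: visible growth, checked with a viewer after overnight incubation at 37° C. Bacteria, from a 10^-2 dilution of an overnight culture, were exposed to drug at 128 to 0.008 μg/ml in Mueller-Hinton broth.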

[2] = system: C. diversus CDC 1663-72; test: In vitro antibacterial activity (MIC); settings: Citrobacter koseri, CDC166372; C. diversus CDC 1663-72; read-out: MIC
Summary of the method: as §1

[3] = system: C. freundii 8ASM; test: In vitro antibacterial activity (MIC); settings: Citrobacter freundii, 8ASM, C. freundii 8ASM; read-out: MIC
Summary of the method: as §1

[4] = system: C. freundii CDC6; test: In vitro antibacterial activity (MIC); settings: Citrobacter freundii, CDC6, C. freundii CDC6; read-out: MIC
Summary of the method: as §1

[5] = system: E. aerogenes 503-478; test: In vitro antibacterial activity (MIC); settings: Klebsiella aerogenes, 503478, E. aerogenes 503-478; read-out: MIC
Summary of the method: as §1

[6] = system: E. aerogenes 83; test: In vitro antibacterial activity (MIC); settings: Klebsiella aerogenes, 83, E. aerogenes 83; read-out: MIC
Summary of the method: as §1

[7] = system: E. cloacae 214; test: In vitro antibacterial activity (MIC); settings: Enterobacter cloacae, 214, E. cloacae 214; read-out: MIC
Summary of the method: as §1

[8] = system: E. cloacae 24; test: In vitro antibacterial activity (MIC); settings: Enterobacter cloacae, 24, E. cloacae 24; read-out: MIC
Summary of the method: as §1

[9] = system: E. cloacae 5699; test: In vitro antibacterial activity (MIC); settings: Enterobacter cloacae, 5699, E. cloacae 5699; read-out: MIC
Summary of the method: as §1

[10] = system: E. cloacae 9295; test: In vitro antibacterial activity (MIC); settings: Enterobacter cloacae, 9295, E. cloacae 9295; read-out: MIC
Summary of the method: as §1

[11] = system: E. cloacae 9570A; test: In vitro antibacterial activity (MIC); settings: Enterobacter cloacae
Summary of the method: as §1

[12] = system: E. coli 387-1; test: In vitro antibacterial activity (MIC); settings: Escherichia coli, 3871, E. coli 387-1; read-out: MIC
Summary of the method: as §1

[13] = system: E. coli 48; test: In vitro antibacterial activity (MIC)
Summary of the method: as §1

[14] = system: E. coli 4; test: In vitro antibacterial activity (MIC); settings: Escherichia coli, 4, E. coli 4; read-out: MIC
Summary of the method: as §1

[15] = system: E. coli 5152; test: In vitro antibacterial activity (MIC)
Summary of the method: as §1

[16] = system: K. pneumoniae 35; test: In vitro antibacterial activity (MIC); settings: Klebsiella pneumoniae; K. pneumoniae 35; read-out: MIC
Summary of the method: as §1

[17] = system: K. pneumoniae 4964; test: In vitro antibacterial activity (MIC); settings: Klebsiella pneumoniae, 4964, K. pneumoniae 4964; read-out: MIC
Summary of the method: as §1

[18] = system: K. pneumoniae 503-994; test: In vitro antibacterial activity (MIC); settings: Klebsiella pneumoniae, 503994, K. pneumoniae 503-994; read-out: MIC
Summary of the method: as §1

[19] = system: K. pneumoniae 5096; test: In vitro antibacterial activity (MIC); settings: Klebsiella pneumoniae; K. pneumoniae 5096; read-out: MIC
Summary of the method: as §1

[20] = system: K. pneumoniae HE7; test: In vitro antibacterial activity (MIC); settings: Klebsiella pneumoniae; K. pneumoniae HE7; read-out: MIC
Summary of the method: as §1

[21] = system: P. aeruginosa 503-56; test: In vitro antibacterial activity (MIC); settings: Pseudomonas aeruginosa, 50356, P. aeruginosa 503-56; read-out: MIC
Summary of the method: as §1

[22] = system: P. aeruginosa 5712; test: In vitro antibacterial activity (MIC); settings: Pseudomonas aeruginosa; P. aeruginosa 5712; read-out: MIC
Summary of the method: as §1

[23] = system: P. aeruginosa 6148B; test: In vitro antibacterial activity (MIC); settings: Pseudomonas aeruginosa, read-out: MIC
Summary of the method: as §1

[24] = system: P. aeruginosa 8710; test: In vitro antibacterial activity (MIC); settings: Pseudomonas aeruginosa; P. aeruginosa 8710; read-out: MIC
Summary of the method: as §1

[25] = system: P. aeruginosa B; test: In vitro antibacterial activity (MIC); settings: Pseudomonas aeruginosa, read-out: MIC
Summary of the method: as §1

[26] = system: P. aeruginosa POW 151; test: In vitro antibacterial activity (MIC); settings: Pseudomonas aeruginosa, POW151
Summary of the method: as §1

[27] = system: P. mirabilis 2; test: In vitro antibacterial activity (MIC); settings: Proteus mirabilis, 2, P. mirabilis 2; read-out: MIC
Summary of the method: as §1

[28] = system: P. mirabilis 503-1136; test: In vitro antibacterial activity (MIC); settings: Proteus mirabilis, 5031136, P. mirabilis 503-1136; read-out: MIC
Summary of the method: as §1

[29] = system: P. vulgaris 101; test: In vitro antibacterial activity (MIC); settings: Proteus vulgaris, 101, P. vulgaris 101; read-out: MIC
Summary of the method: as §1

[30] = system: P. vulgaris ATCC 6380; test: In vitro antibacterial activity (MIC); settings: Proteus vulgaris, ATCC6380, P. vulgaris ATCC 6380; read-out: MIC
Summary of the method: as §1

[31] = system: S. aureus Giorgio; test: In vitro antibacterial activity (MIC); settings: Staphylococcus aureus, S. aureus Giorgio; read-out: MIC
Summary of the method: as §1

[32] = system: S. aureus Smith; test: In vitro antibacterial activity (MIC); settings: Staphylococcus aureus, S. aureus Smith; read-out: MIC
Summary of the method: as §1

[33] = system: S. marcescens 5805; test: In vitro antibacterial activity (MIC); settings: Serratia marcescens, 5805, S. marcescens 5805; read-out: MIC
Summary of the method: as §1

[34] = system: S. marcescens S147; test: In vitro antibacterial activity (MIC); settings: Serratia marcescens; S. marcescens S147; read-out: MIC
Summary of the method: as §1

[35] = system: S. marcescens S1; test: In vitro antibacterial activity (MIC); settings: Serratia marcescens, S1, S. marcescens S1; read-out: MIC
Summary of the method: as §1

[36] = system: S. marcescens S3; test: In vitro antibacterial activity (MIC); settings: Serratia marcescens; S. marcescens S3; read-out: MIC
Summary of the method: as §1

[37] = system: S. marcescens S4; test: In vitro antibacterial activity (MIC); settings: Serratia marcescens, S4, S. marcescens S4; read-out: MIC
Summary of the method: as §1

[38] = system: S. marcescens S714; test: In vitro antibacterial activity (MIC); settings: Serratia marcescens, S714, S. marcescens S714; read-out: MIC
Summary of the method: as §1

[39] = system: S. pneumoniae 6301; test: In vitro antibacterial activity (MIC); settings: Streptococcus pneumoniae, 6301, S. pneumoniae 6301; read-out: MIC
Summary of the method: as §1

[40] = system: S. pneumoniae 6302; test: In vitro antibacterial activity (MIC); settings: Streptococcus pneumoniae, 6302, S. pneumoniae 6302; read-out: MIC
Summary of the method: as §1

[41] = system: S. pneumoniae SC; test: In vitro antibacterial activity (MIC); settings: Streptococcus pneumoniae, read-out: MIC
Summary of the method: as §1

[42] = system: S. pyogenes 4; test: In vitro antibacterial activity (MIC); settings: Streptococcus pyogenes, 4, S. pyogenes 4; read-out: MIC
Summary of the method: as §1

[43] = system: S. pyogenes 503-782; test: In vitro antibacterial activity (MIC); settings: Streptococcus pyogenes, 503782; S. pyogenes 503-782; read-out: MIC
Summary of the method: as §1

[44] = system: S. schottmuelleri; test: In vitro antibacterial activity (MIC); settings: read-out: MIC
Summary of the method: as §1

[45] = system: S. typhi P58A; test: In vitro antibacterial activity (MIC); settings: Salmonella enterica, TYPHI
Summary of the method: as §1

SMILES: CC1(C)S[C@@H]2[C@H](N=CN3CCC(CCCn4ccnc4[N+](=O)[O-])CC3)C(=O)N2[C@H]1C(=O)O [K, [2S-(2alpha,5alpha,6beta)]-6-[[[4-[3-(2-nitro-1H-imidazol-1-yl)propyl]piperidinyl]methylene]amino]-3,3-dimethyl-7-oxo-4-thia-1-azabicyclo[3.2.0]heptane-2-carboxylic acid hydrochloride 0.66 molar hydrate]
- MIC ([1]; Escherichia coli, 257): 0.5 µg/mL
- MIC [2]: 0.25 µg/mL
- MIC [3]: 0.25 µg/mL
- MIC [4]: 0.5 µg/mL
- MIC [5]: 4 µg/mL
- MIC [6]: 8 µg/mL
- MIC [7]: 0.5 µg/mL
- MIC [8]: 1 µg/mL
- MIC [9]: 1 µg/mL
- MIC [10]: 1 µg/mL
- MIC ([11]; 9570A): 1 µg/mL
- MIC [12]: 0.5 µg/mL
- MIC ([13]; Escherichia coli, 48): 0.25 µg/mL
- MIC [14]: 0.5 µg/mL
- MIC ([15]; Escherichia coli, 5152): 8 µg/mL
- MIC [16]: 0.5 µg/mL
- MIC [17]: 0.5 µg/mL
- MIC [18]: 0.25 µg/mL
- MIC [19]: 16 µg/mL
- MIC [20]: 64 µg/mL
- MIC [21]: > 128 µg/mL
- MIC [22]: > 128 µg/mL
- MIC [23]: > 128 µg/mL
- MIC [24]: > 128 µg/mL
- MIC [25]: 0.25 µg/mL
- MIC [26]: > 128 µg/mL
- MIC [27]: 4 µg/mL
- MIC [28]: 8 µg/mL
- MIC [29]: 16 µg/mL
- MIC [30]: 0.5 µg/mL
- MIC [31]: 8 µg/mL
- MIC [32]: 8 µg/mL
- MIC [33]: 8 µg/mL
- MIC [34]: 2 µg/mL
- MIC [35]: 2 µg/mL
- MIC [36]: 4 µg/mL
- MIC [37]: 8 µg/mL
- MIC [38]: 8 µg/mL
- MIC [39]: 1 µg/mL
- MIC [40]: 1 µg/mL
- MIC [41]: 1 µg/mL
- MIC [42]: 0.5 µg/mL
- MIC [43]: 128 µg/mL
- MIC [44]: 0.5 µg/mL
- MIC [45]: 0.5 µg/mL

SMILES: CC1(C)S[C@@H]2[C@H](N=CN3CCC(C4=NCCN4)CC3)C(=O)N2[C@H]1C(=O)O [L, [2S-(2alpha,5alpha,6beta)]-6-[[[4-(4,5-dihydro-1H-imidazol-2-yl)-1-piperidinyl]methylene]amino]-3,3-dimethyl-7-oxo-4-thia-1-azabicyclo[3.2.0]heptane-2-carboxylic acid hydrochloride]
- MIC ([1]; Escherichia coli, 257, E. coli 257, read-out: MIC): 1 µg/mL
- MIC [2]: 0.5 µg/mL
- MIC [3]: 0.25 µg/mL
- MIC [4]: 0.5 µg/mL
- MIC [5]: 8 µg/mL
- MIC [6]: 2 µg/mL
- MIC [7]: 1 µg/mL
- MIC [8]: 1 µg/mL
- MIC [9]: 1 µg/mL
- MIC [10]: 2 µg/mL
- MIC ([11]; read-out: MIC): 2 µg/mL
- MIC [12]: 0.25 µg/mL
- MIC ([13]; Escherichia coli, 48, E. coli 48, read-out: MIC): 0.5 µg/mL
- MIC [14]: 0.125 µg/mL
- MIC ([15]; Escherichia coli, 5152, E. coli 5152, read-out: MIC): 32 µg/mL
- MIC [16]: 2 µg/mL
- MIC [17]: 64 µg/mL
- MIC [18]: 1 µg/mL
- MIC [19]: 64 µg/mL
- MIC [20]: > 128 µg/mL
- MIC [21]: 64 µg/mL
- MIC [22]: > 128 µg/mL
- MIC [23]: 128 µg/mL
- MIC [24]: 128 µg/mL
- MIC [25]: 0.5 µg/mL
- MIC [26]: > 128 µg/mL
- MIC [27]: 1 µg/mL
- MIC [28]: 8 µg/mL
- MIC [29]: 32 µg/mL
- MIC [30]: 0.25 µg/mL
- MIC [31]: 2 µg/mL
- MIC [32]: 4 µg/mL
- MIC [33]: 8 µg/mL
- MIC [34]: 1 µg/mL
- MIC [35]: 0.5 µg/mL
- MIC [36]: 0.5 µg/mL
- MIC [37]: 2 µg/mL
- MIC [38]: 2 µg/mL
- MIC [39]: 0.5 µg/mL
- MIC [40]: 1 µg/mL
- MIC [41]: 1 µg/mL
- MIC [42]: 0.5 µg/mL
- MIC [43]: 32 µg/mL
- MIC [44]: 0.25 µg/mL
- MIC [45]: 0.5 µg/mL
